Reference: PubChem BioAssay (NCI)
Several values for one entry are separate records, joined by “and”; a condition that tells them apart may be missing. Equal values may be shown once.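 Growth conditions: 96-well plates. Treatment: test compound, 48 hours, 5 concentrations. Analysis: linear interpolation between bracketing concentrations; unreached endpoints set to highest concentration. At the GI50, growth is halved. TGI marks complete inhibition of growth.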

How the values were obtained:
Test in all cases: NCI anticancer screen, dose series, 48 h
[1] = test system: A498 renal
[2] = test system: PC-3 prostate
[3] = test system: SR leukemia
[4] = test system: SF-295 CNS
[5] = test system: DU-145 prostate
[6] = test system: NCI-H522 lung
[7] = test system: NCI-H226 lung
[8] = test system: 786-0 renal
[9] = test system: LOX IMVI melanoma
[10] = test system: HCC-2998 colon

Row | SMILES | GI50 [1] | TGI [1] | GI50 [2] | TGI [2] | GI50 [3] | TGI [3] [µM] | GI50 [4] [nM] | TGI [4] | GI50 [5] | TGI [5] [µM] | GI50 [6] [nM] | TGI [6] [µM] | GI50 [7] | TGI [7] | GI50 [8] | TGI [8] | GI50 [9] | TGI [9] | TGI [10] | GI50 [10] [nM]
1 | Cc1nn(-c2ccc(Br)cc2)c(C)c1CC(=O)c1cc(O)ccc1O | 7180 nM | 47.3 µM | 9970 nM | > 50 µM | 911 nM | > 50 | 14900 | 30.3 µM | 14800 nM | 44.6 | 16000 | > 50 | 7690 nM | 19.3 µM | 20500 nM | > 50 µM | 4130 nM | 13.9 µM | – | –
2 | O=C1OC2C(O)C(=O)OC2C1O (stereo not drawn) | – | > 100 µM | – | > 100 µM | – | > 100 | – | > 100 µM | – | > 100 | – | > 100 | – | > 100 µM | – | > 100 µM | – | > 100 µM | > 100 µM | –
3 | COC(=O)C1C2CCCN2OC1(C)CO (stereo not drawn) | – | > 100 µM | – | > 100 µM | – | > 100 | – | > 100 µM | – | > 100 | – | > 100 | – | > 100 µM | – | > 100 µM | – | > 100 µM | – | –
4 | C[C@@]1(N2C(=O)OC[C@@H]2c2ccccc2)C(=O)N([C@H](CC(=O)N2CCC(N3CCCCC3)CC2)C(=O)NCc2cccc(C(F)(F)F)c2)[C@@H]1/C=C/c1ccccc1 | 1880 nM | 5.98 µM | 4150 nM | 15.7 µM | 1940 nM | 4.7 | 1730 | 3.42 µM | 2790 nM | 8.47 | 1860 | 3.85 | 22500 nM | 39.7 µM | 1810 nM | 3.41 µM | 1810 nM | 3.5 µM | 3.79 µM | 1980
5 | O=C(O)/C=C\C(=O)Nc1ccc2c(c1)C(=O)c1cc(F)ccc1-2 | – | > 100 µM | – | > 100 µM | – | > 100 | – | > 100 µM | – | > 100 | – | > 100 | – | > 100 µM | – | > 100 µM | – | > 100 µM | – | –
6 | CC(=O)OCC1OC(n2c(-c3ccccc3)c(C)c(C)c(C#N)c2=S)C(OC(C)=O)C(OC(C)=O)C1OC(C)=O (stereo not drawn) | – | > 100 µM | – | > 100 µM | 32300 nM and 95300 nM | > 100 | – | > 50 µM and 66.4 µM | 36900 nM and > 100000 nM | > 100 | – | > 100 | – | > 100 µM | 6840 nM and 23200 nM | 19.3 µM and 56.1 µM | 14100 nM and > 100000 nM | > 100 µM | > 100 µM | –
7 | O=C(Nc1ccc(Br)cc1F)c1cc(Br)ccc1O | 246 nM | 1.12 µM | 2060 nM | 7.69 µM | 2070 nM | 11.8 | 1580 | 3.56 µM | 1470 nM | 23.1 | 344 | 5.38 | 688 nM | 7.76 µM | 1660 nM | 6.26 µM | 668 nM | 4.47 µM | 10.8 µM | 2870
8 | COc1ccc(/C=C/C(=O)c2ccc(Nc3ccnc4cc(Cl)ccc34)cc2)cc1 | > 52300 nM | > 100 µM | > 100000 nM | > 100 µM | 2240 nM | 10.1 | > 100000 | > 100 µM | > 100000 nM | > 100 | > 100000 | > 100 | > 100000 nM | > 100 µM | > 100000 nM | > 100 µM | > 100000 nM | > 100 µM | > 100 µM | > 100000
9 | CN1CCCCC1CCN1c2ccccc2Sc2ccc(S(C)=O)cc21 (stereo not drawn) | – | > 100 µM | – | > 100 µM | – | > 100 | – | > 100 µM | – | > 100 | – | > 100 | – | > 100 µM | – | > 100 µM | – | > 100 µM | – | –
10 | NC[C@@](O)(c1ccc(Cl)cc1)c1ccc(-c2cn[nH]c2)cc1 | 438 nM and 313 nM | > 23.5 µM and 7.45 µM | 3890 nM and 2190 nM | > 100 µM | 1160 nM | 4.64 | 969 | 4.62 µM | 3270 nM and 2490 nM | > 100 | 1450 | 3.53 | 1420 nM and 2190 nM | > 100 µM | 341 nM and 473 nM | 10.6 µM and 2.2 µM | 1590 nM | 3.04 µM | > 100 µM | > 100000
11 | S=C(N/N=C(/c1ccccc1)c1ccccn1)Nc1cccc(Cl)c1 | 195 nM | 1.72 µM and 6.29 µM | 26.4 nM | 7.05 µM and 6.71 µM | 4.13 nM | – | 968 | 5.36 µM and 5.17 µM | 2970 nM | 9.43 | 1120 | 2.4 | 219 nM | 1.64 µM and 4.2 µM | 675 nM | 2.51 µM and 5.56 µM | 729 nM | 3.72 µM and > 34 µM | 5.04 µM and 5.92 µM | 2000
12 | Cc1ccccc1/C=C1\CN(C(=O)OC(C)(C)C)C/C(=C\c2ccccc2C)C1=O | 3000 nM | 6.24 µM | 2500 nM | 7.69 µM | 1890 nM | > 100 | 2190 | 5.37 µM | 2370 nM | 5.52 | 2200 | 6.63 | 2010 nM | 4.14 µM | 1840 nM | 3.52 µM | 1880 nM | 3.6 µM | 3.78 µM | 1940
13 | Cc1nc2cc(N)c(Cl)cc2[nH]1 | – | > 100 µM | – | > 100 µM | – | > 100 | – | > 100 µM | – | > 100 | – | > 100 | – | > 100 µM | – | > 100 µM | – | > 100 µM | – | –
14 | CCCN1CCN(c2ccc3nc(-c4ccc5nc(-c6ccc(OCC)c(OCC)c6)[nH]c5c4)[nH]c3c2)CC1 | 538 nM | 1.82 µM | 381 nM | 1.92 µM | 263 nM | 0.896 | 391 | 2.03 µM | 436 nM | 1.75 | – | – | 495 nM | 2.06 µM | 986 nM | 2.33 µM | 198 nM | 0.461 µM | 1.16 µM | 533
15 | CC[C@]12CCCN3CC[C@]4(C(=C(C(=O)OC)C1)Nc1ccccc14)[C@@H]32 | 16100 nM | 32.4 µM | 20500 nM | 61.5 µM | 17200 nM | > 100 | 17900 | 36.1 µM | 16800 nM | 35.2 | 13000 | 30.3 | – | – | 13900 nM | 29.1 µM | 14300 nM | 27.5 µM | 29 µM | 14600
